Laboratory results: patent publication US6727264B1 (Synaptic Pharmaceutical Corporation, priority 2001, dated 2004)

Biological target: rat MCH-1 (Rattus norvegicus, UniProt P97639)
Experiment: Radioligand binding assay at cloned rat MCH1 receptor ([3H] Compound A)
Parameters: host or cells: Peak rapid 293 (Peakr293) cells, transient calcium phosphate transfection, membranes
Conditions: cloned rat MCH1 receptor; 0.08 nM [3H] Compound A; Peakr293 cell membranes; read-out: Ki (nM) rMCH1

rat MCH-1, sequence (P97639 whole entry): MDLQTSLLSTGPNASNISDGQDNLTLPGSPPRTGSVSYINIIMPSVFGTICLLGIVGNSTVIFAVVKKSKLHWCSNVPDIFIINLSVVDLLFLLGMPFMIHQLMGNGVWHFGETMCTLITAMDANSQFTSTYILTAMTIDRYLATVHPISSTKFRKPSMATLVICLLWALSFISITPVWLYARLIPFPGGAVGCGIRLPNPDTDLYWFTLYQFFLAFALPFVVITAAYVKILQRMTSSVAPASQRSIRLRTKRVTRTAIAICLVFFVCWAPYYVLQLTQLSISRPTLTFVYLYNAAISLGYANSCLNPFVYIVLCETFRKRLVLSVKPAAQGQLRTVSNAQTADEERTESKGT

Ki [nM]	Structure (SMILES)
3.1	CC(C)C(=O)Nc1cccc(C2CCN(CCCc3c(-c4ccc(I)cc4)n(C)c4ccccc34)CC2)c1 [Example 748]
23.2	CC(C)C(=O)Nc1cccc(C2CCN(CCCc3c(-c4ccc(I)cc4)[nH]c4c3ccc3ccccc34)CC2)c1 [Example 749]
2.6	CC(C)C(=O)Nc1cccc(C2CCN(CCCc3c(-c4ccc(I)cc4)[nH]c4ccccc34)CC2)c1 [Example 750]
12.4	CC(C)C(=O)Nc1cccc(C2CCN(CCCc3c(-c4cccc(Br)c4)[nH]c4ccc(OC(F)(F)F)cc34)CC2)c1 [Example 751]
21.7	CC(C)C(=O)Nc1cccc(C2CCN(CCCc3c(-c4ccc(Br)cc4)[nH]c4c3ccc3ccccc34)CC2)c1 [Example 752]
16.6	Cc1cccc2c(CCCN3CCC(c4cccc(NC(=O)C(C)C)c4)CC3)c(-c3ccc(Br)cc3)[nH]c12 [Example 753]
49.2	CC(C)C(=O)Nc1cccc(C2CCN(CCCc3c(-c4ccc(Br)cc4)[nH]c4ccc(OC(F)(F)F)cc34)CC2)c1 [Example 754]
23.8	CC(C)C(=O)Nc1cccc(C2CCN(CCCc3c(-c4cccc(Br)c4)[nH]c4c3ccc3ccccc34)CC2)c1 [Example 755]
4.2	CC(C)C(=O)Nc1cccc(C2CCN(CCCc3c(-c4ccc(Br)cc4)[nH]c4ccccc34)CC2)c1 [Example 756]
6.9	CC(C)C(=O)Nc1cccc(C2CCN(CCCc3c(-c4cccc(Br)c4)n(-c4ccccc4)c4ccccc34)CC2)c1 [Example 757]
110	CC(C)C(=O)Nc1cccc(C2CCN(CCCc3c(-c4cccc(Br)c4)n(C)c4ccccc34)CC2)c1 [Example 758]
92.3	CC(C)C(=O)Nc1cccc(C2CCN(CCCc3c(-c4ccc(Br)cc4)n(-c4ccccc4)c4ccccc34)CC2)c1 [Example 760]
15.9	COc1ccc2[nH]c(-c3ccc(Br)cc3)c(CCCN3CCC(c4cccc(NC(=O)C(C)C)c4)CC3)c2c1 [Example 761]
6.3	Cc1cccc2c(CCCN3CCC(c4cccc(NC(=O)C(C)C)c4)CC3)c(-c3cccc(Br)c3)[nH]c12 [Example 762]
1.9	Cc1ccc2[nH]c(-c3cccc(Br)c3)c(CCCN3CCC(c4cccc(NC(=O)C(C)C)c4)CC3)c2c1 [Example 763]
14.6	Cc1ccc2[nH]c(-c3ccc(Br)cc3)c(CCCN3CCC(c4cccc(NC(=O)C(C)C)c4)CC3)c2c1 [Example 764]
6.5	COc1ccc2[nH]c(-c3cccc(Br)c3)c(CCCN3CCC(c4cccc(NC(=O)C(C)C)c4)CC3)c2c1 [Example 765]
7.6	CC(C)C(=O)Nc1cccc(C2CCN(CCCc3c(-c4cccc([N+](=O)[O-])c4)[nH]c4ccccc34)CC2)c1 [Example 766]
34.8	CC(C)C(=O)Nc1cccc(C2CCN(CCCc3c(-c4cccc([N+](=O)[O-])c4)[nH]c4c3ccc3ccccc34)CC2)c1 [Example 767]
17.5	CC(C)C(=O)Nc1cccc(C2CCN(CCCc3c(-c4cccc([N+](=O)[O-])c4)[nH]c4ccc(OC(F)(F)F)cc34)CC2)c1 [Example 768]
12.4	Cc1ccc2[nH]c(-c3cccc([N+](=O)[O-])c3)c(CCCN3CCC(c4cccc(NC(=O)C(C)C)c4)CC3)c2c1 [Example 769]
12.7	COc1ccc2[nH]c(-c3cccc([N+](=O)[O-])c3)c(CCCN3CCC(c4cccc(NC(=O)C(C)C)c4)CC3)c2c1 [Example 770]
189	CC(C)C(=O)Nc1cccc(C2CCN(CCCc3c(-c4cccc([N+](=O)[O-])c4)n(-c4ccccc4)c4ccccc34)CC2)c1 [Example 771]
14.9	CC(C)C(=O)Nc1cccc(C2CCN(CCCc3c(-c4cccc([N+](=O)[O-])c4)n(C)c4ccccc34)CC2)c1 [Example 772]
23.8	Cc1cccc2c(CCCN3CCC(c4cccc(NC(=O)C(C)C)c4)CC3)c(-c3cccc([N+](=O)[O-])c3)[nH]c12 [Example 773]
7.9	COc1ccc2[nH]c(-c3ccc([N+](=O)[O-])cc3)c(CCCN3CCC(c4cccc(NC(=O)C(C)C)c4)CC3)c2c1 [Example 774]
4.9	CC(C)C(=O)Nc1cccc(C2CCN(CCCc3c(-c4ccccc4Br)[nH]c4ccccc34)CC2)c1 [Example 775]
18.2	Cc1ccc2[nH]c(-c3ccc([N+](=O)[O-])cc3)c(CCCN3CCC(c4cccc(NC(=O)C(C)C)c4)CC3)c2c1 [Example 776]
8.5	CC(C)C(=O)Nc1cccc(C2CCN(CCCc3c(-c4ccc([N+](=O)[O-])cc4)[nH]c4c3ccc3ccccc34)CC2)c1 [Example 777]

The remaining lines, values behind:

Structure (SMILES)	Ki [nM]
CC(C)C(=O)Nc1cccc(C2CCN(CCCc3c(-c4ccccc4F)n(-c4ccccc4)c4ccccc34)CC2)c1 [Example 711]	90.5
COc1ccc2[nH]c(-c3ccccc3F)c(CCCN3CCC(c4cccc(NC(=O)C(C)C)c4)CC3)c2c1 [Example 712]	8.6
COc1ccc2[nH]c(-c3ccc(Cl)cc3)c(CCCN3CCC(c4cccc(NC(=O)C(C)C)c4)CC3)c2c1 [Example 713]	7.7
CC(C)C(=O)Nc1cccc(C2CCN(CCCc3c(-c4ccc(F)cc4)[nH]c4c3ccc3ccccc34)CC2)c1 [Example 714]	4.7
CC(C)C(=O)Nc1cccc(C2CCN(CCCc3c(-c4ccc(F)cc4)[nH]c4ccc(OC(F)(F)F)cc34)CC2)c1 [Example 715]	4.2
Cc1cccc2c(CCCN3CCC(c4cccc(NC(=O)C(C)C)c4)CC3)c(-c3ccc(F)cc3)[nH]c12 [Example 716]	4.5
CC(C)C(=O)Nc1cccc(C2CCN(CCCc3c(-c4ccc(F)cc4)[nH]c4ccccc34)CC2)c1 [Example 717]	1.3
Cc1ccc2[nH]c(-c3ccc(F)cc3)c(CCCN3CCC(c4cccc(NC(=O)C(C)C)c4)CC3)c2c1 [Example 718]	3.4
Cc1cccc2c(CCCN3CCC(c4cccc(NC(=O)C(C)C)c4)CC3)c(-c3ccc(Cl)cc3)[nH]c12 [Example 719]	14.9
Cc1ccc2[nH]c(-c3ccc(Cl)cc3)c(CCCN3CCC(c4cccc(NC(=O)C(C)C)c4)CC3)c2c1 [Example 720]	12.5
CC(C)C(=O)Nc1cccc(C2CCN(CCCc3c(-c4ccc(Cl)cc4)n(-c4ccccc4)c4ccccc34)CC2)c1 [Example 721]	75.3
Cc1cccc2c(CCCN3CCC(c4cccc(NC(=O)C(C)C)c4)CC3)c(-c3cccc(Cl)c3)[nH]c12 [Example 722]	6.4
CC(C)C(=O)Nc1cccc(C2CCN(CCCc3c(-c4cccc(Cl)c4)[nH]c4ccc(OC(F)(F)F)cc34)CC2)c1 [Example 723]	9.2
CC(C)C(=O)Nc1cccc(C2CCN(CCCc3c(-c4cccc(Cl)c4)n(C)c4ccccc34)CC2)c1 [Example 724]	5
CC(C)C(=O)Nc1cccc(C2CCN(CCCc3c(-c4cccc(Cl)c4)n(-c4ccccc4)c4ccccc34)CC2)c1 [Example 725]	152
COc1ccc2[nH]c(-c3cccc(Cl)c3)c(CCCN3CCC(c4cccc(NC(=O)C(C)C)c4)CC3)c2c1 [Example 726]	5
Cc1ccc2[nH]c(-c3cccc(Cl)c3)c(CCCN3CCC(c4cccc(NC(=O)C(C)C)c4)CC3)c2c1 [Example 727]	3.4
CC(C)C(=O)Nc1cccc(C2CCN(CCCc3c(-c4cccc(Cl)c4)[nH]c4c3ccc3ccccc34)CC2)c1 [Example 728]	16.3
CC(C)C(=O)Nc1cccc(C2CCN(CCCc3c(-c4cccc(Cl)c4)[nH]c4ccccc34)CC2)c1 [Example 729]	1.7

Structure (SMILES)	Ki [nM]
CC(C)C(=O)Nc1cccc(C2CCN(CCCc3c(-c4ccccc4Cl)[nH]c4ccccc34)CC2)c1 [Example 730]	0.9
CC(C)C(=O)Nc1cccc(C2CCN(CCCc3c(-c4ccccc4Cl)[nH]c4ccc(OC(F)(F)F)cc34)CC2)c1 [Example 731]	9.9
CC(C)C(=O)Nc1cccc(C2CCN(CCCc3c(-c4ccccc4Cl)[nH]c4c3ccc3ccccc34)CC2)c1 [Example 732]	5.8
Cc1cccc2c(CCCN3CCC(c4cccc(NC(=O)C(C)C)c4)CC3)c(-c3ccccc3Cl)[nH]c12 [Example 733]	10
CC(C)C(=O)Nc1cccc(C2CCN(CCCc3c(-c4ccccc4Cl)n(-c4ccccc4)c4ccccc34)CC2)c1 [Example 734]	28.6
CC(C)C(=O)Nc1cccc(C2CCN(CCCc3c(-c4ccccc4Cl)n(C)c4ccccc34)CC2)c1 [Example 735]	1.1
Cc1ccc2[nH]c(-c3ccccc3Cl)c(CCCN3CCC(c4cccc(NC(=O)C(C)C)c4)CC3)c2c1 [Example 736]	5.7
CC(C)C(=O)Nc1cccc(C2CCN(CCCc3c(-c4cccc(I)c4)[nH]c4ccccc34)CC2)c1 [Example 737]	1
CC(C)C(=O)Nc1cccc(C2CCN(CCCc3c(-c4cccc(I)c4)n(C)c4ccccc34)CC2)c1 [Example 738]	10.2
CC(C)C(=O)Nc1cccc(C2CCN(CCCc3c(-c4cccc(I)c4)n(-c4ccccc4)c4ccccc34)CC2)c1 [Example 739]	214
CC(C)C(=O)Nc1cccc(C2CCN(CCCc3c(-c4cccc(I)c4)[nH]c4c3ccc3ccccc34)CC2)c1 [Example 740]	12.2
CC(C)C(=O)Nc1cccc(C2CCN(CCCc3c(-c4cccc(I)c4)[nH]c4ccc(OC(F)(F)F)cc34)CC2)c1 [Example 741]	2.8
Cc1ccc2[nH]c(-c3cccc(I)c3)c(CCCN3CCC(c4cccc(NC(=O)C(C)C)c4)CC3)c2c1 [Example 742]	1.4
Cc1cccc2c(CCCN3CCC(c4cccc(NC(=O)C(C)C)c4)CC3)c(-c3cccc(I)c3)[nH]c12 [Example 743]	4.1
CC(C)C(=O)Nc1cccc(C2CCN(CCCc3c(-c4ccc(I)cc4)[nH]c4ccc(OC(F)(F)F)cc34)CC2)c1 [Example 744]	47.1
Cc1ccc2[nH]c(-c3ccc(I)cc3)c(CCCN3CCC(c4cccc(NC(=O)C(C)C)c4)CC3)c2c1 [Example 745]	15.8
Cc1cccc2c(CCCN3CCC(c4cccc(NC(=O)C(C)C)c4)CC3)c(-c3ccc(I)cc3)[nH]c12 [Example 746]	8
CC(C)C(=O)Nc1cccc(C2CCN(CCCc3c(-c4ccc(I)cc4)n(-c4ccccc4)c4ccccc34)CC2)c1 [Example 747]	161
CC(C)C(=O)Nc1cccc(C2CCN(CCCc3c(-c4ccc(Br)cc4)n(C)c4ccccc34)CC2)c1 [Example 759]	9.3
